Results on 30 compounds are retold here after patent US10150772B2, “Crystalline forms of PARP inhibitors” (priority 2014, dated 2018).

“Also recorded” adds a separate entry of the source. Counter-ions that a name gives are not always drawn. Like-named read-outs stand apart in the source and are kept apart here. Some results are limits rather than exact numbers.

Series [1] is classed as physicochemical. Particulars: 40° C. and 75% RH; for Stability to the test conditions (in words): 28 day test period. Further details: DSC: unit not given beside the values. Here is the method: Identity, Assay, and Purity by HPLC
Testing was performed on a calibrated and validated Agilent 1200 Rapid Resolution High Performance Liquid Chromatography (HPLC) system designated LC-0430-AD or LC-418-1D. The system comprises a binary SL pump, degasser, high performance autosampler SL with a fraction collector, thermostated column compartment with a 2 valve column switcher, and a DAD SL detector. All standard solutions and samples were prepared in Class A glass volumetric flasks and were placed in autosampler vials. Standard weighings were done using a calibrated Mettler analytical balance. The sample preparations were centrifuged using an Eppendorf microcentrifuge. The primary chromatography data was acquired and integrated using Empower 2 software. Microsoft Office Excel 2003 was used for the calculation of results.
Solid State Stability of Salts at 40° C. and 75% Humidity:
Samples of the form to be studied (15-20 mg) were weighed into standard 1.5 mL HPLC vials (32×11.6 mm) and stored uncapped for 0, 7, 14 and 28 days in a 40° C. and 75% RH stability chamber. Samples were removed on the indicated day and capped. Measurements of XRPD, DSC, TGA and HPLC Identity by Purity and Assay measurements were completed on each time point sample.

Series [2] in a line: Estimation of water solubility. In kind it is physicochemical. The note with it: visual inspection, 10 mg sample. How it is done:
Estimation of Water Solubility: Ten mg portions of the salt forms to be studied were weighed into a standard 1.5 mL HPLC vial (32×11.6 mm). […] An estimation of solubility was based on the volume of water necessary to dissolve the known weight of sample.

The nature of series [3]: Dynamic vapor sorption (DVS), water sorption. In kind it is physicochemical. Particulars: DVS. How it is done: Dynamic Vapor Sorption (DVS):
DVS experiments have been carried out using the DVS-HT instrument (Surface Measurement Systems, London, UK). This instrument measures the uptake and loss of vapor gravimetrically using a recording ultra-microbalance with a mass resolution of ±0.1 μg. The vapor partial pressure (±1.0%) around the sample is controlled by mixing saturated and dry carrier gas streams using electronic mass flow controllers. The desired temperature is maintained at ±0.1° C. The samples (1-10 mg) were placed into the DVS-HT and DVS-1 instruments at the desired temperature.
The sample was loaded and unloaded at 40% RH and 25° C. (typical room conditions). A moisture sorption isotherm was performed as outlined below (2 scans giving 1 complete cycle). The software uses a least squares minimization procedure together with a model of the mass relaxation, to predict an asymptotic value. The measured mass equilibration value must be within 2% of that predicted by the software before proceeding to the next % RH value. The minimum equilibration time was set to 1 hour and the maximum to 4 hours.

In the case of `COc1cccc2[nH]c3c4c(c5c(c3c12)C(=O)N(CN1CCN(C)CC1)C5=O)CCC4.O=C1CC[C@@H](C(=O)O)N1`, in series [1] (day 0), the “COMPOUND A Assay” value is reported as 65.5%, the “COMPOUND B Assay” value amounted to 0.6%, the DSC was 198.2 and the “HPLC Purity” value was 98.6%. The compound further gave a TGA in series [1] (day 0) of 0.49%. Further, in series [1] (day 7), the “COMPOUND A Assay” value is recorded as 71.4%, the “COMPOUND B Assay” value came to 0.6%, the DSC is on record as 199.0 and the “HPLC Purity” value amounted to 98.7%. Besides, in series [1] (day 7), the TGA stood at 0.54% and the XRPD result is “No change”. For the same compound, in series [1] (day 14), the “COMPOUND A Assay” value amounted to 60.2%, the “COMPOUND B Assay” value amounted to 0.8%, the DSC was 198.3 and the “HPLC Purity” value is recorded as 98.2%. Besides, in series [1] (day 14), the TGA was determined as 0.64% and the XRPD entry is “No change”. Also, in series [1] (day 28), the “COMPOUND A Assay” value is 64.0%, the “COMPOUND B Assay” value is 1.2%, the DSC stood at 198.4 and the “HPLC Purity” value is on record as 97.2%. Further, the XRPD result in series [1] (day 28) is reported as “No change”.

On to `COc1cccc2[nH]c3c4c(c5c(c3c12)C(=O)N(CN1CCN(C)CC1)C5=O)CCC4` [Sample 13-4], for which the “Estimated Water Solubility” value in series [2] was less than 10 mg/mL.

`COc1cccc2[nH]c3c4c(c5c(c3c12)C(=O)N(CN1CCN(C)CC1)C5=O)CCC4` [Sample 39-3]: the “Estimated Water Solubility” value in series [2] is more than 100 mg/mL.

As to `COc1cccc2[nH]c3c4c(c5c(c3c12)C(=O)N(CN1CCN(C)CC1)C5=O)CCC4` [L-Pyroglutamate Salt, Form A1], the “Stability to the test conditions (in words)” value in series [1] is recorded as “stable over a 28 day test period, except for a slow increase in Compound B content”. Also, the “DVS sorption behaviour (in words)” value in series [3] (25° C.) was “massive uptake in moisture”. For the same compound, in series [3] (25° C., entire RH range), the “Total uptake (moisture)” value is approximately 27%. Besides, the “Water absorption, first cycle” value in series [3] (RH range of 40-75%) is approximately 2%.

For `COc1cccc2[nH]c3c4c(c5c(c3c12)C(=O)N(CN1CCN(C)CC1)C5=O)CCC4` [Sample 13-8], the “Estimated Water Solubility” value in series [2] is recorded as more than 100 mg/mL.

Regarding `COc1cccc2[nH]c3c4c(c5c(c3c12)C(=O)N(CN1CCN(C)CC1)C5=O)CCC4` [Sample 30-2], in series [2], the “Estimated Water Solubility” value is reported as more than 100 mg/mL.

Regarding `COc1cccc2[nH]c3c4c(c5c(c3c12)C(=O)N(CN1CCN(C)CC1)C5=O)CCC4` [Sample 31-2], in series [2], the “Estimated Water Solubility” value was more than 100 mg/mL.

Take `COc1cccc2[nH]c3c4c(c5c(c3c12)C(=O)N(CN1CCN(C)CC1)C5=O)CCC4` [Sample 31-5]: the “Estimated Water Solubility” value in series [2] was approximately 25 mg/mL.

In the case of `COc1cccc2[nH]c3c4c(c5c(c3c12)C(=O)N(CN1CCN(C)CC1)C5=O)CCC4` [Sample 30-4], the “Estimated Water Solubility” value in series [2] is more than 100 mg/mL.

Consider `COc1cccc2[nH]c3c4c(c5c(c3c12)C(=O)N(CN1CCN(C)CC1)C5=O)CCC4` [39-2(2)], for which, in series [2], the “Estimated Water Solubility” value is more than 100 mg/mL.

Turning to `COc1cccc2[nH]c3c4c(c5c(c3c12)C(=O)N(CN1CCN(C)CC1)C5=O)CCC4` [Sample 30-3], in series [2], the “Estimated Water Solubility” value is given as more than 100 mg/mL.

In the case of `COc1cccc2[nH]c3c4c(c5c(c3c12)C(=O)N(CN1CCN(C)CC1)C5=O)CCC4` [Sample 13-6], the “Estimated Water Solubility” value in series [2] is on record as more than 100 mg/mL.

Consider `COc1cccc2[nH]c3c4c(c5c(c3c12)C(=O)N(CN1CCN(C)CC1)C5=O)CCC4` [Sample 39-5], for which the “Estimated Water Solubility” value in series [2] was more than 100 mg/mL.

Take `COc1cccc2[nH]c3c4c(c5c(c3c12)C(=O)N(CN1CCN(C)CC1)C5=O)CCC4` [Glycolate Salt Hydrate, Form A1]: the “Stability to the test conditions (in words)” value in series [1] was “fairly stable to the test conditions; also recorded: generated the least amount of Compound B”. In addition, the “HPLC Purity” value in series [1] (day 0) was found to be 99.8%; in series [1] (day 7), 99.6%; in series [1] (day 14) it was 99.7%; in series [1] (day 28), 99.5%. The TGA was 2.1% in series [1] (day 0), 2.3% in series [1] (day 7), 2.6% in series [1] (day 14) and 3.5% in series [1] (day 28). For the same compound, the “COMPOUND A Assay” value came to 69.9% in series [1] (day 0, HPLC); 68.4% in series [1] (day 7, HPLC); 73.2% in series [1] (day 14, HPLC); 66.8% in series [1] (day 28, HPLC). Also, the “COMPOUND B Assay” value was 0.1% in series [1] (day 0, HPLC); 0.1% in series [1] (day 7, HPLC); 0.2% in series [1] (day 14, HPLC); 0.6% in series [1] (day 28, HPLC). In addition, the XRPD entry in series [1] (day 7), in series [1] (day 14) and in series [1] (day 28) was “No change” in each case. The “DVS sorption behaviour (in words)” value in series [3] (25° C.) was “surface adsorption with limited bulk absorption throughout the entire RH range”. Also, in series [3] (25° C., 90% RH), the “Total uptake in moisture at 90% RH” value was approximately 3.5%.

With `COc1cccc2[nH]c3c4c(c5c(c3c12)C(=O)N(CN1CCN(C)CC1)C5=O)CCC4` [Sample 31-4], the “Estimated Water Solubility” value in series [2] was more than 100 mg/mL.

For the compound `COc1cccc2[nH]c3c4c(c5c(c3c12)C(=O)N(CN1CCN(C)CC1)C5=O)CCC4` [Sample 30-1], the “Estimated Water Solubility” value in series [2] was approximately 20 mg/mL.

Regarding `COc1cccc2[nH]c3c4c(c5c(c3c12)C(=O)N(CN1CCN(C)CC1)C5=O)CCC4` [Sample 13-5], the “Estimated Water Solubility” value in series [2] is less than 10 mg/mL.

On to `COc1cccc2[nH]c3c4c(c5c(c3c12)C(=O)N(CN1CCN(C)CC1)C5=O)CCC4` [Sample 13-3], for which, in series [2], the “Estimated Water Solubility” value is 50 to 100 mg/mL.

`COc1cccc2[nH]c3c4c(c5c(c3c12)C(=O)N(CN1CCN(C)CC1)C5=O)CCC4` [Sample 31-3]: the “Estimated Water Solubility” value in series [2] is more than 100 mg/mL.

For the compound `COc1cccc2[nH]c3c4c(c5c(c3c12)C(=O)N(CN1CCN(C)CC1)C5=O)CCC4` [Sample 13-10], the “Estimated Water Solubility” value in series [2] is 10 to 20 mg/mL.

As to `COc1cccc2[nH]c3c4c(c5c(c3c12)C(=O)N(CN1CCN(C)CC1)C5=O)CCC4` [39-5(2)], the “Estimated Water Solubility” value in series [2] is reported as more than 100 mg/mL.

With `COc1cccc2[nH]c3c4c(c5c(c3c12)C(=O)N(CN1CCN(C)CC1)C5=O)CCC4` [Sample 13-7], the “Estimated Water Solubility” value in series [2] is 50 to 100 mg/mL.

Turning to `COc1cccc2[nH]c3c4c(c5c(c3c12)C(=O)N(CN1CCN(C)CC1)C5=O)CCC4` [Sample 31-1], the “Estimated Water Solubility” value in series [2] was approximately 25 mg/mL.

`COc1cccc2[nH]c3c4c(c5c(c3c12)C(=O)N(CN1CCN(C)CC1)C5=O)CCC4` [Sample 39-2]: the “Estimated Water Solubility” value in series [2] is reported as less than 10 mg/mL.

Consider `COc1cccc2[nH]c3c4c(c5c(c3c12)C(=O)N(CN1CCN(C)CC1)C5=O)CCC4` [Sample 39-4], for which, in series [2], the “Estimated Water Solubility” value is given as more than 100 mg/mL.

For `COc1cccc2[nH]c3c4c(c5c(c3c12)C(=O)N(CN1CCN(C)CC1)C5=O)CCC4` [39-1(2)], in series [2], the “Estimated Water Solubility” value is recorded as approximately 25 mg/mL.

Turning to `COc1cccc2[nH]c3c4c(c5c(c3c12)C(=O)N(CN1CCN(C)CC1)C5=O)CCC4` [Sample 13-9], the “Estimated Water Solubility” value in series [2] is less than 10 mg/mL.

For `COc1cccc2[nH]c3c4c(c5c(c3c12)C(=O)N(CN1CCN(C)CC1)C5=O)CCC4` [39-3(2)], in series [2], the “Estimated Water Solubility” value was more than 100 mg/mL.

In the case of `COc1cccc2[nH]c3c4c(c5c(c3c12)C(=O)N(CN1CCN(C)CC1)C5=O)CCC4` [Sample 39-1], the “Estimated Water Solubility” value in series [2] is approximately 50 mg/mL.

Consider `COc1cccc2[nH]c3c4c(c5c(c3c12)C(=O)N(CN1CCN(C)CC1)C5=O)CCC4` [Sample 30-5], for which the “Estimated Water Solubility” value in series [2] is recorded as approximately 25 mg/mL.
